This is an account of results in PMC5308787, “Isoprenoid-phospholipid conjugates as potential therapeutic agents: Synthesis, characterization and antiproliferative studies” (PLoS ONE, 2017).

Assay [1] has as its system MV4-11 (human biphenotypic B myelomonocytic leukaemia). In words: Antiproliferative MTT assay, 72 h exposure. In kind it is cell-based. The conditions noted are these: Homo sapiens, MV4-11, mean ± SD of 3–5 independent experiments. The procedure:
(§1) The biological studies were performed in vitro using human cancer cell lines: MV4-11 (human biphenotypic B myelomonocytic leukaemia), A-549 (non-small cell lung cancer), MCF-7 (breast cancer), LoVo (colon cancer), LoVo/DX (colon cancer drug resistant), HepG2 (liver cancer) and BALB/3T3 (normal mice fibroblasts). These lines were obtained from American Type Culture Collection (Rockville, Maryland, U.S.A.). The cell line is being maintained in the Institute of Immunology and Experimental Therapy, Wroclaw, Poland. All cell lines were grown at 37°C with 5% CO2 humidified atmosphere and were cultured in cultured medium according to the method described before.
(§2) Prior to usage, the compounds were dissolved in DMSO or in mixture of 99.8% ethanol and DMSO (1:1) to the concentration of 25 or 50 mM, and subsequently diluted in culture medium to reach the required concentrations (ranging from 5 to 625 μM).
(§3) Twenty-four hours prior to the addition of tested compounds, the cells were plated in 96-well plates (Sarstedt, Germany) at a density of 1 × 10^4 cells per well in 100 μL of culture medium. The assay was performed after 72 h of exposure to varying concentrations of the tested agents. The in vitro cytotoxic effect of tested agents was examined using the MTT (for MV4-11 cells) or SRB assay which were described previously. Each compound in each concentration was tested in triplicate in a single experiment, which was repeated 3–5 times.
(§4) The results of antiproliferative activity were given as IC50 values. Using this parameter we calculated also the resistance indexes (RI) dividing the IC50 values of selected compounds estimated for drug resistant cell LOVO/DX line by respective values designated for drug sensitive LoVo line. According to Harker et al. three categories of the cells could be distinguished: (a) the cells are drug-sensitive—if the ratio approaches 0–2; (b) the cells are moderately drug-resistant—if the ratio ranges from 2 to 10; (c) the cells are markedly drug-resistant—if the ratio is higher than 10.

Assay [2] concerns A-549 (non-small cell lung cancer). Nature of the assay: Antiproliferative SRB assay, 72 h exposure. In kind it is cell-based, human. The conditions noted are these: Homo sapiens, A549, mean ± SD of 3–5 experiments, n.a. = no activity in concentration of 5, 25, 125, 625 μM. As for the experimental part: as §1, §2, §3, §4
The next assay concerns HepG2 (liver cancer). In words: Antiproliferative SRB assay, 72 h exposure. The conditions noted are these: Homo sapiens, HepG2, mean ± SD of 3–5 experiments, n.a. = no activity in concentration of 5, 25, 125, 625 μM. In kind it is cell-based, human. The procedure:
as §1, §2, §3, §4

For another assay, the system named is LoVo (colon cancer). In words: Antiproliferative SRB assay, 72 h exposure. In kind it is cell-based, human. The conditions noted are these: LoVo; for IC50: Homo sapiens, SRB, 72 h, mean ± SD of 3–5 experiments, n.a. = no activity in concentration of 5, 25, 125, 625 μM. As for the experimental part: as §1, §2, §3, §4
Assay [3] has as its system LoVo/DX (colon cancer drug resistant). In words: Antiproliferative SRB assay, 72 h exposure. The format is cell-based, human. The conditions noted are these: Homo sapiens, LoVo/DX, mean ± SD of 3–5 experiments, n.a. = no activity in concentration of 5, 25, 125, 625 μM. As for the experimental part: as §1, §2, §3, §4
The test system of another assay is MCF-7 (breast cancer). In words: Antiproliferative SRB assay, 72 h exposure. In kind it is cell-based, human. The conditions noted are these: Homo sapiens, MCF7, mean ± SD of 3–5 experiments, n.a. = no activity in concentration of 5, 25, 125, 625 μM. The procedure:
as §1, §2, §3, §4

Assay [4] deals with BALB/3T3 (normal mice fibroblasts). Nature of the assay: Antiproliferative SRB assay, 72 h exposure. The format is cell-based. The conditions noted are these: Mus musculus, BALB/3T3, mean ± SD of 3–5 experiments, n.a. = no activity in concentration of 5, 25, 125, 625 μM. As for the experimental part:
as §1, §2, §3, §4

Assay [5] has as its system drug resistant LOVO/DX line vs drug sensitive LoVo line. In words: Resistance index (RI): IC50 LOVO/DX divided by IC50 LoVo. In kind it is cell-based, human. The conditions noted are these: for Resistance index (RI): RI = IC50 resistant line / IC50 non-resistant line, 0<RI<2 able to overcome drug resistance, 2<RI<10 moderate ability, RI>10 no influence; for able to overcome the barrier of P-gp-dependent resistance: judged from RI.
Text: as §4

Assay [6] concerns lung (A549), colon (LoVo) and liver (HepG2) cancer cell lines. Nature of the assay: Antiproliferative activity, range over several cancer cell lines as stated in text. In kind it is cell-based. The conditions noted are these: Homo sapiens, read-out: IC50 against lung (A549), colon (LoVo) and liver (HepG2) cancer cell lines. The procedure: as §1, §2
Twenty-four hours prior to the addition of tested compounds, the cells were plated in 96-well plates (Sarstedt, Germany) at a density of 1 × 10^4 cells per well in 100 μL of culture medium. […]
The results of antiproliferative activity were given as IC50 values. Using this parameter we calculated also the resistance indexes (RI) dividing the IC50 values of selected compounds estimated for drug resistant cell LOVO/DX line by respective values designated for drug sensitive LoVo line. […]

With `C=CC(C)(CC/C=C(\C)CCC=C(C)C)CC(=O)OC[C@@H](O)COP(=O)([O-])OCC[N+](C)(C)C` (stereo partly drawn) [Compound 8b], the IC50 in assay [1] is 112 ± 39.8 µM; in assay [2], 260 ± 33.6 µM; in the assay on HepG2 (liver cancer), 344 ± 40.9 µM; in the assay on LoVo (colon cancer), 241 ± 15.1 µM; in [3], 280 ± 44.4 µM; in the assay on MCF-7 (breast cancer), 250 ± 45.2 µM. The same compound showed an IC50 in assay [4] of 297 ± 18.6 µM. Also, in [5], the “Resistance index (RI)” value turned out to be 1.99.
For `C=CC(C)(CC/C=C(\C)CCC=C(C)C)CC(=O)O[C@H](COC(=O)CCCCCCCCCCCCCCC)COP(=O)([O-])OCC[N+](C)(C)C` (stereo partly drawn) [Compound 7b, (2'R)-1’-palmitoyl-2’-[(3R,6E)-3,7,11-trimethyl-3-vinyldodeca-6,10-dienyl]-sn-glycero-3’-phosphocholine + (2'R)-1’-palmitoyl-2’-[(3S,6E)-3,7,11-trimethyl-3-vinyldodeca-6,10-dienyl]-sn-glycero-3’-phosphocholine], the concentration for half-maximal inhibition (IC50) in assay [1] turned out to be 50.3 ± 5.37 µM; in assay [2], 111 ± 12.9 µM; with HepG2 (liver cancer), 272 ± 24.7 µM; in the assay with LoVo (colon cancer), 251 ± 22.7 µM; in [3], 486 ± 17.4 µM; with MCF-7 (breast cancer) it was 98.7 ± 15.6 µM. Further, the IC50 in assay [4] came out at 518 ± 69.8 µM. In addition, in assay [5], the “Resistance index (RI)” value is on record as 1.16.
Take `C=CC(C)(CC/C=C(\C)CCC=C(C)C)CC(=O)O` (stereo not drawn) [2 (FARA), (E)-3,7,11-trimethyl-3-vinyldodeca-6,10-dienoic acid]: the IC50 in assay [1] turned out to be 153 ± 20.1 µM; in assay [2] it was 91 ± 11.5 µM; with HepG2 (liver cancer), 267 ± 15.5 µM; with LoVo (colon cancer), 99.2 ± 26 µM; in assay [3], 87 ± 14.4 µM; in the assay with MCF-7 (breast cancer), 162 ± 5.9 µM. For the same compound, in [4], the 50% inhibitory concentration (IC50) was 230 ± 40.3 µM. Also, the “Resistance index (RI)” value in assay [5] amounted to 0.88.
In the case of `C=CC(C)(CC/C=C(\C)CCC=C(C)C)CC(=O)OC[C@H](COP(=O)([O-])OCC[N+](C)(C)C)OC(=O)CC(C)(C=C)CC/C=C(\C)CCC=C(C)C` (stereo partly drawn) [Compound 6b], the IC50 in [1] turned out to be 27.8 ± 7.52 µM; in assay [2], 30.4 ± 1.5 µM; with HepG2 (liver cancer), 53.6 ± 5.1 µM; in the assay on LoVo (colon cancer) it was 13.6 ± 0.7 µM; in assay [3], 57.6 ± 0.6 µM; in the assay on MCF-7 (breast cancer), 45 ± 1.4 µM. The 50% inhibitory concentration (IC50) is 57.8 ± 1.4 µM in assay [4] and 13.6 to 57.8 µM in assay [6]. The “activity against colon cancer cell line, fold lower than cisplatin” value in the assay on LoVo (colon cancer) stood at 5 fold. Moreover, the “able to overcome the barrier of P-gp-dependent resistance” value in assay [5] is recorded as “exception”.
With `CCCC=C1C(C)(C)CCCC1(C)CC(=O)O` (stereo not drawn) [3 (DAA), 2-(2-butylidene-1,3,3-trimethylcyclohexyl)-acetic acid], the IC50 in assay [1] was 132 ± 52.7 µM; in assay [2] it was 150 ± 16.8 µM; with HepG2 (liver cancer) it was 274 ± 12 µM; in the assay on LoVo (colon cancer), 173 ± 38.7 µM; in assay [3], 109 ± 16 µM; with MCF-7 (breast cancer) it was 231 ± 43.2 µM. Further, the IC50 in assay [4] was 297 ± 14.4 µM. The “Resistance index (RI)” value in assay [5] came out at 0.63.
With `CCC/C=C1/C(C)(C)CCCC1(C)CC(=O)O[C@H](COC(=O)CCCCCCCCCCCCCCC)COP(=O)([O-])OCC[N+](C)(C)C` (stereo partly drawn) [Compound 7c, (2’R)-1’-palmitoyl-2’-{2-[(3R,2"E)-2"-butylidene-1",3",3"-trimethyl]cyclohexyl}acetyl-sn-glycero-3’-phospocholine + (2’R)-1’-palmitoyl-2’-{2-[(3S,2"E)-2"-butylidene-1",3",3"-trimethyl]cyclohexyl}acetyl-sn-glycero-3’-phospocholine], the half-maximal inhibitory concentration (IC50) in assay [1] was 65.1 ± 12.2 µM; in [2] it was 75.7 ± 10.6 µM; with HepG2 (liver cancer) it was 134 ± 51 µM; in the assay on LoVo (colon cancer), 54.4 ± 3.2 µM; in [3] it was 111 ± 19.4 µM; with MCF-7 (breast cancer), 89.7 ± 11.3 µM. The compound also showed an IC50 in assay [4] of 276 ± 25.7 µM. Also, in [5], the “Resistance index (RI)” value is 1.35. The “able to overcome the barrier of P-gp-dependent resistance” value in assay [5] is listed as “exception”.
